Data from paper PMC7164622, “Citrate lyase CitE in Mycobacterium tuberculosis contributes to mycobacterial survival under hypoxic conditions” (PLoS ONE, 2020).

Experiments:
MtbCitE (CitE) [1] = molecular target: T1, MtbCitE (CitE) (Mycobacterium tuberculosis, UniProt P9WPE1)
MtbCitE (CitE) [2] = molecular target: T1, MtbCitE (CitE); remark: listed apart in the source
[3] = molecular target: the molecule itself; assay: cross-linking; chemical cross-linking with 4 μM disuccinimidyl suberate (DSS), 10 mM CitE protein (so in the source), 100 mM NaH2PO4 pH 8.0, 150 mM NaCl, room temperature, half an hour, then SDS-PAGE

In the case of `Nc1ncnc2c1ncn2[C@@H]1O[C@H](COP(=O)(O)OP(=O)(O)OP(=O)(O)O)[C@@H](O)[C@H]1O` [ATP], the “activity with 0-1.5 mM ATP” value (MtbCitE (CitE) [1]) is reported as “the citrate cleavage activity of MtbCitE was inhibited by ATP”.

For `O=C(O)CC(O)(CC(=O)O)C(=O)O` [citrate], the citrate cleavage activity (MtbCitE (CitE) [2]) was “we predicted that purified MtbCitE had citrate lyase activity”.

B1: Mycobacterium tuberculosis CitE (MtbCitE), citrate lyase (enzyme)
chain: MNLRAAGPGWLFCPADRPERFAKAAAAADVVILDLEDGVAEAQKPAARNALRDTPLDPERTVVRINAGGTADQARDLEALAGTAYTTVMLPKAESAAQVIELAPRDVIALVETARGAVCAAEIAAADPTVGMMWGAEDLIATLGGSSSRRADGAYRDVARHVRSTILLAASAFGRLALDAVHLDILDVEGLQEEARDAAAVGFDVTVCIHPSQIPVVRKAYRPSHEKLAWARRVLAASRSERGAFAFEGQMVDSPVLTHAETMLRRAGEATSE
notes: also called Rv2498c; citrate lyase β-subunit
With B1 the “stoichiometry N” value [3] was 3.
